Source: patent publication US9109004B2, “Progesterone receptor antagonists” (Bayer Intellectual Property GmbH, priority 2010, dated 2015)

Tests used:
[1] = Metabolic stability in human liver microsomes (HLM); assay type: in vitro ADME; conditions: from HLM half-life, well-stirred model, phase I reactions; 1 μM test compound
Experimental: Metabolic stability of 4-[(11β,17β)-17-hydroxy-3-oxo-17-(pentafluoro-ethyl)estra-4,9-dien-11-yl]benzamide and 4′-[(11β,17β)-17-hydroxy-3-oxo-17-(pentafluoro-ethyl)estra-4,9-dien-11-yl]biphenyl-4-carboxamide in human liver microsomes (HLM) Isolated human liver microsomes (HLM) were used for assessing the metabolic stability of compounds of general formula I. The incubations were carried out with 2.4 ml HLM solution (0.5 mg/ml protein content), 30 μl of the test compound (final concentration 1 μM) and 0.6 ml of the cofactor mixture (=NADPH-generating system of 3 IU glucose-6-phosphate dehydrogenase, 14.6 mg glucose-6-phosphate, 1.2 mg NADP) at 37° C. in 100 mM phosphate buffer at pH 7.4. Samples are taken at 6 time points (2-60 min), precipitated with an equal volume of methanol, and the recovery of the test substances used in the supernatant is determined by LC-MS/MS analysis. The intrinsic clearance of the substance in the liver microsome assay can be calculated from the value found for the half-life of substance breakdown. Using this, on the basis of various physiological characteristics according to the well-stirred model it is possible to predict a (metabolic) in-vivo clearance with respect to phase I reactions.

[2] = target: T1, human progesterone receptor A (Homo sapiens, UniProt P06401); test: Progesterone-receptor-antagonistic action in stably transfected SK-N-MC cells, MTV-LUC reporter (PR-A); assay type: cell-based; conditions: antagonistic potency vs 0.1 nmol/l promegestone, 24 hours, luciferase
T1 construct: expressed in transfected cells; host or cells: SK-N-MC human neuroblastoma cells, stably transfected
T1 sequence (P06401 1-769 isoform P06401-2): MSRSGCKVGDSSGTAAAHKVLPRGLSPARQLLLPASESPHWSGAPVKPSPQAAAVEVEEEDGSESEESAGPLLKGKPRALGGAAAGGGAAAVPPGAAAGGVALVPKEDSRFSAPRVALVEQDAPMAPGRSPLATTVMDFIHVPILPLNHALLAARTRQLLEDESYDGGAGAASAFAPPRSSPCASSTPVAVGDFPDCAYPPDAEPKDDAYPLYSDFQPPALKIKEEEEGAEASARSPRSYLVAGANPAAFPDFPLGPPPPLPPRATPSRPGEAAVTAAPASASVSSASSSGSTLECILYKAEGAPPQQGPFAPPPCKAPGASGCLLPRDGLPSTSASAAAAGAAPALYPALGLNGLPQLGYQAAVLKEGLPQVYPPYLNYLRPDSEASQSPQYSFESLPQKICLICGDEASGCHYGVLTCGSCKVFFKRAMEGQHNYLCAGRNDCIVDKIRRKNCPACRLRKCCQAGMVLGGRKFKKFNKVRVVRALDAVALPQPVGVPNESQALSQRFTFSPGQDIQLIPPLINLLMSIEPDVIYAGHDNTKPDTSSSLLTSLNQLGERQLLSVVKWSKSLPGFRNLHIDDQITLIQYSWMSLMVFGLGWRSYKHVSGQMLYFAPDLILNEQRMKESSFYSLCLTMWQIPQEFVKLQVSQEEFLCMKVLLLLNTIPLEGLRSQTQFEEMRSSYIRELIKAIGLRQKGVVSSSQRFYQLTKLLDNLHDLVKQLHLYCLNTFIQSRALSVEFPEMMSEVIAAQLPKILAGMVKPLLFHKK
Method in brief: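 SK-N-MC neuroblastoma cells stably expressing human PR-B or PR-A plus MMTV-LUC reporter, treated 24 h with 0.1 nmol/l promegestone plus test compound at 0.01 nmol/l–1 μmol/l. Luciferase in lysates read as RLU; values as % efficacy and IC50.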

pregnant rats = test: Test as abortifacient in female rats (termination of early pregnancy); assay type: in vivo, rat; conditions: d5-d7 p.c., autopsy d9 p.c.
Experimental: Test as Abortifacient in Female Rats
The antagonistic action of the compounds according to the invention was tested on pregnant rats (6 rats per group) on day 5 to 7 post coitum in conventional conditions of husbandry and feeding.
After successful mating, the pregnant animals (presence of sperm in the vaginal smear on day 1 of pregnancy=d1 p.c.) were randomized and were divided into the treatment group and the control group. The animals then received, subcutaneously or orally, in each case 0.15; 0.5; 1.5 or 5 mg/kg of the test compound or 1.0 ml/kg of vehicle (benzyl benzoate/castor oil: 1+4 [v/v]) daily from day 5 to day 7 (d5-d7 p.c.).
Autopsy was carried out on day 9 (d9 p.c.). For characterization of progesterone-receptor-antagonistic action, the uterus was investigated for the presence of nidation sites. Complete absence, but also the presence of pathological, haemorrhagic or otherwise abnormal nidation sites on day 9 (d9 p.c.) was assessed as abortion.

- (metabolic) in-vivo clearance in humans predicted [1]: 3.5 mL/min/kg
- IC50 [2]: 0.01 nM
Structure (SMILES): C[C@]12C[C@H](c3ccc(-c4ccc(C(N)=O)cc4)cc3)C3=C4CCC(=O)C=C4CC[C@H]3[C@@H]1CC[C@@]2(O)C(F)(F)C(F)(F)F [Example 79, 4′-[(11β,17β)-17-Hydroxy-3-oxo-17-(pentafluoroethyl)estra-4,9-dien-11-yl]biphenyl-4-carboxamide]
- Abortion rate (pregnant rats; daily dose 0.5 mg/kg p.o.): 100%
- Abortion rate (pregnant rats; daily dose 1.5 mg/kg p.o.): 100%
- Abortion rate (pregnant rats; daily dose 5.0 mg/kg p.o.): 100%
